# Legend:
# healthy subjects = experiment: Reading the Mind in the Eyes Test (RMET); format: in vivo, human
# Source text: In some embodiments, Reading the Mind in the Eyes Test (RMET) is utilized to evaluate the safety and/or efficacy of psilocybin. The RMET has 36 items, in which subjects are presented with a photograph of the eyes region of the face and must choose 1 of 4 adjectives or phrases to describe the mental state of the person pictured. A definition handout is provided at the beginning of the task and a practice item precedes the first trial.
# The following list of outcome measures are non-exhaustive. • a. The short-term change from Baseline (Day −1 [Visit 2]) to Day 7 (Visit 5) in cognitive measures of attention, spatial and working memory and executive function was measured by a composite score of the CANTAB Panel (Spatial Working Memory [SWM], Rapid Visual Information Processing [RVP], Paired Associates Learning [PAL]). • b. The short-term change from Baseline (Day −1 [Visit 2]) to Day 7 (Visit 5) in Social Cognition Panel scales (Pictorial Empathy Test [PET], Reading the Mind in the Eyes Test [RMET], Toronto Empathy Questionnaire [TEQ], Social Value Orientation [SVO], Scale of Social Responsibility [SSR]). • c. The change from Baseline (Day −1 [Visit 2]) to Day 28 (Visit 6) in cognitive measures of attention, spatial and working memory and executive function as measured by a composite score of the CANTAB Panel (SWM, RVP, PAL). • d. The long-term change from Baseline (Day −1 [Visit 2]) to Day 84 (Visit 7) in Social Cognition Panel scales (PET, RMET, TEQ, SVO, SSR). • e. Dose-related differences between cognitive effects of psilocybin at Baseline (Day −1 [Visit 2]), Day 7 (Visit 5) and Day 28 (Visit 6), as measured by a composite score of the CANTAB Panel (SWM, RVP, PAL). • f. Dose-related differences between psychological effects of psilocybin at Baseline (Day −1 [Visit 2]), Day 7 (Visit 5) and Day 84 (Visit 7), as measured by Social Cognition Panel scales (PET, RMET, TEQ, SVO, SSR). • g. Differences in cognitive effects of psilocybin between psilocybin-naïve and experienced subjects at Baseline (Day −1 [Visit 2]), Day 7 (Visit 5) and Day 28 (Visit 6), as measured by a composite score of the CANTAB Panel (SWM, RVP, PAL). • h. Differences in Positive and Negative Affect Schedule (PANAS) after study drug administration on Day 0 (Visit 3). • i. Differences between psilocybin and placebo in the Emotion Recognition Test (ERT), Intra-Extra Dimensional Set Shift (IED), One Touch Stockings (OTS), Verbal Fluency and Digit Span Forward at Day 7 (Visit 5). • j. A composite score of the CANTAB Panel, including the following tests: • i. Spatial Working Memory (SWM) (performed at Visit 2, Visit 5, and Visit 6). • ii. Rapid Visual Information Processing (RVP) (performed at Visit 2, Visit 5, and Visit 6). • iii. Paired Associates Learning (PAL) (performed at Visit 2, Visit 5, and Visit 6). • k. Cognitive Flexibility Panel • i. Emotion Recognition Task (ERT) (performed at Visit 5). • ii. Intra-Extra Dimensional Set Shift (IED) (performed at Visit 5). • iii. One Touch Stockings (OTS) (performed at Visit 5). • iv. Verbal Fluency (performed at Visit 5). • v. Digit Span Forward (performed at Visit 5). • l. Five Dimension Altered States of Consciousness questionnaire (5D-ASC) (performed at Visit 3). • m. PANAS (performed at Visit 2 and Visit 3). • n. NEO-Five Factor Inventory (NEO-FFI) (performed at Visit 2, Visit 5, and Visit 7). • o. Symptom Checklist-90 item (SCL-90) (performed at Visit 2, Visit 5, and Visit 7). • p. Life Changes Inventory (LCI): The LCI measures changes in attitudes and values after near-death experiences often used to evaluate personal transformation following spiritually oriented experiences and practices. (performed at Visit 5 and Visit 7). • q. Social Cognition Panel scales • i. Pictorial Empathy Test (PET) (performed at Visit 2, Visit 5, and Visit 7). • ii. Reading the Mind in the Eyes Test (RMET) (performed at Visit 2, Visit 5, and Visit 7). • iii. Social Value Orientation (SVO) (performed at Visit 2, Visit 5, and Visit 7). • iv. […]
# female Wistar rats = experiment: Binge eating model: chow, chocolate and total food intake; conditions: across the whole study
smiles,measurement,setting,value
CN(C)CCc1c[nH]c2cccc(OP(=O)(O)O)c12 [psilocybin],"RMET change from baseline, LS mean difference Psilocybin 10 mg - Placebo","healthy subjects; Day 7, MMRM",0.1
same,"RMET change from baseline, LS mean difference Psilocybin 25 mg - Placebo","healthy subjects; Day 7, MMRM",0.2
same,"RMET change from baseline, LS mean difference Psilocybin 25 mg-10 mg","healthy subjects; Day 7, MMRM",0.0
same,"RMET change from baseline, LS mean difference Psilocybin 10 mg - Placebo","healthy subjects; Day 84, MMRM",0.2
same,"RMET change from baseline, LS mean difference Psilocybin 25 mg - Placebo","healthy subjects; Day 84, MMRM",0.5
same,"RMET change from baseline, LS mean difference Psilocybin 25 mg-10 mg","healthy subjects; Day 84, MMRM",0.3
same,Food intake over the 24 hour period (normal feeding behaviour),female Wistar rats,not significantly altered

# Reference: patent US11865126B2, “Method for treating anxiety disorders, headache disorders, and eating disorders with psilocybin” (priority 2019, dated 2024)
